Assay results taken from US20230099344A1, “COMPOUNDS AND METHODS FOR THE TARGETED DEGRADATION OF IRAK-4” (Arvinas Operations, Inc., priority 2021, published 2023).

How the values were obtained:
Format in all cases: cell-based
IL6 [1] = assay: R848 stimulated IL6 inhibition assay in PBMC; conditions: human PBMCs, R848 stimulation, compound overnight, IL6 by MSD after 24 hrs; for Dmax: Homo sapiens, 24 h, read-out: R848 stim IL6 inhibition Dmax; for IC50: read-out: R848 stim IL6 inhibition IC50
Description: (§1) IL-1β, LPS, or R848 Stimulated IL6 Inhibition and IL-1β Stimulated IL8 Inhibition Assay
(§2) Human PBMC cells were seeded at 2.0×10^6 cells/mL, treated with compound overnight, and dosed with the EC50 concentration of each stimulant (either IL-1B. LPS, or R848) was determined for each donor. After 24 hrs, media was collected and analyzed by MSD for IL6 and/or IL8 levels.

IL6 [2] = assay: LPS stimulated IL6 inhibition assay in PBMC; conditions: human PBMCs, LPS stimulation, compound overnight, IL6 by MSD after 24 hrs; for Dmax: read-out: LPS Stim IL6 inhibition Dmax; for IC50: read-out: LPS stim IL6 inhibition IC50
Description: as §1, §2

IRAK-4 = target: T1, IRAK-4 (Homo sapiens, UniProt Q9NWZ3); assay: IRAK-4 ELISA, PBMC degradation; set-up: endogenous in cells; host or cells: PBMC; conditions: treated overnight
T1 sequence (Q9NWZ3 1-460): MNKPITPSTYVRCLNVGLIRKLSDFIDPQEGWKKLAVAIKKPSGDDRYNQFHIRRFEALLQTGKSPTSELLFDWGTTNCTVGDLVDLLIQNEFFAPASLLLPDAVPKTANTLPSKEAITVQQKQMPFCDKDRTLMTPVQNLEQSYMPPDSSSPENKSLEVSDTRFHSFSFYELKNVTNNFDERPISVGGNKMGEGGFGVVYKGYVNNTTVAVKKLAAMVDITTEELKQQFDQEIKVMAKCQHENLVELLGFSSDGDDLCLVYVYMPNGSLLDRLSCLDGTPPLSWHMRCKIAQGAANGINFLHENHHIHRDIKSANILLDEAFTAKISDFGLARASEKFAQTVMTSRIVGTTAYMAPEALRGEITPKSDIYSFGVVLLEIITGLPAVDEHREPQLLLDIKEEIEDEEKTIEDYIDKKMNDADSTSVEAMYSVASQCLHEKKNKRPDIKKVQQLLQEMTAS
Outline: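 OCI-Ly10 cells (1×10^6/ml) or PBMC (2×10^6/ml) treated with compound on the day of seeding and incubated overnight. IRAK-4 protein remaining in cell lysates quantified by sandwich ELISA.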

SMILES | IC50 (IL6 [1]; PBMC) [nM] | IC50 (IL6 [2]; Homo sapiens, PBMC, 24 h) [nM] | DC50 (IRAK-4) [nM] | Dmax (IRAK-4) [%] | PBMC DC90 (IRAK-4) | IC50 (IL6 [1]) [nM] | IC50 (IL6 [2]) [nM] | PBMC Dmax (IRAK-4) | Dmax (IL6 [1]; PBMC) [%] | Dmax (IL6 [2]; Homo sapiens, PBMC, 24 h) [%] | R848 stim IL6 inhibition Dmax (IL6 [1]) | LPS Stim IL6 inhibition Dmax (IL6 [2])
O=C1CCC(N2Cc3c(ccc(N4CCC(CN5CCC(n6cc7cc(NC(=O)c8cnn9cccnc89)c(OCC(F)F)cc7n6)CC5)CC4)c3F)C2=O)C(=O)N1 (centres unmarked) [Example 154] | < 10 | < 10 | < 1 | 80 to 90 | A (A represents a DC90 value <10.0 nM) | – | – | – | ≥ 90 | 80 to 90 | – | –
O=C1CCC(N2Cc3ccc(N4CCC(CN5CCC(n6cc7cc(NC(=O)c8cnn9cccnc89)c(OCC8CC8)cc7n6)CC5)CC4)cc3C2=O)C(=O)N1 (centres unmarked) [Example 155] | < 10 | < 10 | < 1 | ≥ 90 | A (A represents a DC90 value <10.0 nM) | – | – | – | ≥ 90 | 80 to 90 | – | –
O=C1CCC(N2Cc3cc(N4CCC(CN5CCC(n6cc7cc(NC(=O)c8cnn9cccnc89)c(OCC(F)F)cc7n6)CC5)CC4)ccc3C2=O)C(=O)N1 (centres unmarked) [Example 156] | – | – | < 1 | – | A (A represents a DC90 value <10.0 nM) | < 10 | < 10 | A (A represents a Dmax value ≥90) | – | – | A (A represents a Ymax value ≥90) | C (C represents a Ymax value ≥70 and <80)
O=C1CCC(N2Cc3cc(N4CCC(CN5CCC(n6cc7cc(NC(=O)c8cnn9cccnc89)c(N8CCN(CC(F)F)CC8)cc7n6)CC5)CC4)ccc3C2=O)C(=O)N1 (centres unmarked) [Example 157] | 10 to 50 | 10 to 50 | < 1 | ≥ 90 | A (A represents a DC90 value <10.0 nM) | – | – | – | ≥ 90 | 70 to 80 | – | –
O=C1CCC(N2Cc3c(ccc(N4CCC(CN5CCC(n6cc7cc(NC(=O)c8cnn9cccnc89)c(N8CCN(CC(F)F)CC8)cc7n6)CC5)CC4)c3F)C2=O)C(=O)N1 (centres unmarked) [Example 158] | < 10 | < 10 | < 1 | ≥ 90 | A (A represents a DC90 value <10.0 nM) | – | – | – | ≥ 90 | 80 to 90 | – | –
O=C1CCC(N2C(=O)c3ccc(N4CCC(CN5CCC(n6cc7cc(NC(=O)c8cnn9cccnc89)c(N8CCN(CC(F)F)CC8)cc7n6)CC5)CC4)cc3C2=O)C(=O)N1 (centres unmarked) [Example 159] | 10 to 50 | 10 to 50 | 1 to 5 | ≥ 90 | A (A represents a DC90 value <10.0 nM) | – | – | – | ≥ 90 | 70 to 80 | – | –
O=C1CCC(N2C(=O)c3ccc(N4CC(F)(CN5CCC(n6cc7cc(NC(=O)c8cnn9cccnc89)c(N8CCOCC8)cc7n6)CC5)C4)cc3C2=O)C(=O)N1 (centres unmarked) [Example 218] | < 10 | 10 to 50 | 5 to 10 | 80 to 90 | D (D represents a DC90 value ≥50 nM) | – | – | – | ≥ 90 | 70 to 80 | – | –
CC1(CN2CCC(n3cc4cc(NC(=O)c5cnn6cccnc56)c(OCC5CC5)cc4n3)CC2)CN(c2cc3c(cc2F)C(=O)N(C2CCC(=O)NC2=O)C3=O)C1 (centres unmarked) [Example 222] | 50 to 100 | 50 to 100 | ≥ 10 | 70 to 80 | D (D represents a DC90 value ≥50 nM) | – | – | – | ≥ 90 | 70 to 80 | – | –
O=C1CCC(N2C(=O)c3ccc(N4CC[C@@H](N5CCC(n6cc7cc(NC(=O)c8cnn9cccnc89)c(OCC8CC8)cc7n6)CC5)C4)cc3C2=O)C(=O)N1 (some centres unmarked) [Example 224] | 10 to 50 | 10 to 50 | 1 to 5 | 80 to 90 | B (B represents a DC90 value ≥10.0 nM and <25.0 nM) | – | – | – | ≥ 90 | 80 to 90 | – | –
COc1cc(N2CC(F)(CN3CCC(n4cc5cc(NC(=O)c6cnn7cccnc67)c(OC(C)C)nc5n4)CC3)C2)cc2c1C(=O)N(C1CCC(=O)NC1=O)C2=O (centres unmarked) [Example 241] | 10 to 50 | ≥ 100 | 1 to 5 | 70 to 80 | B (B represents a DC90 value ≥10.0 nM and <25.0 nM) | – | – | – | 80 to 90 | – | – | –
COc1c(N2CC(F)(CN3CCC(n4cc5cc(NC(=O)c6cnn7cccnc67)c(OCC6CC6)cc5n4)CC3)C2)ccc2c1C(=O)N(C1CCC(=O)NC1=O)C2=O (centres unmarked) [Example 246] | < 10 | < 10 | 5 to 10 | < 70 | B (B represents a DC90 value ≥10.0 nM and <25.0 nM) | – | – | – | ≥ 90 | 70 to 80 | – | –
O=C1CCC(N2C(=O)c3ccc(N4CCCC5(CN(CCN6CCC(n7cc8cc(NC(=O)c9cnn%10cccnc9%10)c(OCC9CC9)cc8n7)CC6)C5)C4)cc3C2=O)C(=O)N1 (centres unmarked) [Example 248] | 10 to 50 | 10 to 50 | 1 to 5 | < 70 | A (A represents a DC90 value <10.0 nM) | – | – | – | ≥ 90 | < 70 | – | –
O=C1CCC(N2C(=O)c3ccc(N4CCC5(CC4)CN(CCN4CCC(n6cc7cc(NC(=O)c8cnn9cccnc89)c(OCC8CC8)cc7n6)CC4)C5)cc3C2=O)C(=O)N1 (centres unmarked) [Example 249] | 10 to 50 | ≥ 100 | 1 to 5 | ≥ 90 | A (A represents a DC90 value <10.0 nM) | – | – | – | 80 to 90 | < 70 | – | –
O=C1CCC(N2Cc3c(ccc(N4CC(F)(CN5CCC(n6cc7cc(NC(=O)c8cnn9cccnc89)c(OCC8CC8)cc7n6)CC5)C4)c3F)C2=O)C(=O)N1 (centres unmarked) [Example 250] | 10 to 50 | ≥ 100 | 1 to 5 | 80 to 90 | B (B represents a DC90 value ≥10.0 nM and <25.0 nM) | – | – | – | 80 to 90 | < 70 | – | –
O=C1CCC(N2Cc3c(ccc(N4CC(F)(CN5CCC(n6cc7cc(NC(=O)c8cnn9cccnc89)c(OCC(F)F)cc7n6)CC5)C4)c3F)C2=O)C(=O)N1 (centres unmarked) [Example 251] | 10 to 50 | 50 to 100 | 1 to 5 | 80 to 90 | A (A represents a DC90 value <10.0 nM) | – | – | – | 80 to 90 | < 70 | – | –
O=C1CC[C@@H](N2C(=O)c3ccc(N4CC(F)(CN5CCC(n6cc7cc(NC(=O)c8cnn9cccnc89)c(OCC8CC8)cc7n6)CC5)C4)cc3C2=O)C(=O)N1 [Example 253] | 10 to 50 | 10 to 50 | 1 to 5 | ≥ 90 | B (B represents a DC90 value ≥10.0 nM and <25.0 nM) | – | – | – | ≥ 90 | < 70 | – | –

Continued, in another order:

IC50 (IL6 [1]; PBMC) [nM] | IC50 (IL6 [2]; Homo sapiens, PBMC, 24 h) [nM] | DC50 (IRAK-4) [nM] | Dmax (IRAK-4) [%] | PBMC DC90 (IRAK-4) | IC50 (IL6 [1]) [nM] | IC50 (IL6 [2]) [nM] | PBMC Dmax (IRAK-4) | SMILES | Dmax (IL6 [1]; PBMC) [%] | Dmax (IL6 [2]; Homo sapiens, PBMC, 24 h) [%] | R848 stim IL6 inhibition Dmax (IL6 [1]) | LPS Stim IL6 inhibition Dmax (IL6 [2])
< 10 | < 10 | < 1 | 80 to 90 | A (A represents a DC90 value <10.0 nM) | – | – | – | O=C1CCC(N2Cc3c(ccc(N4CCC(CN5CCC(n6cc7cc(NC(=O)c8cnn9cccnc89)c(OCC8CC8)cc7n6)CC5)CC4)c3F)C2=O)C(=O)N1 (centres unmarked) [Example 153] | 80 to 90 | ≥ 90 | – | –
10 to 50 | 10 to 50 | 1 to 5 | 80 to 90 | A (A represents a DC90 value <10.0 nM) | – | – | – | O=C1CCC(N2C(=O)c3ccc(N4CC(F)(CN5CCC(n6cc7cc(NC(=O)c8cnn9cccnc89)c(OCC(F)F)cc7n6)CC5)C4)cc3C2=O)C(=O)N1 (centres unmarked) [Example 231] | ≥ 90 | 80 to 90 | – | –
10 to 50 | 50 to 100 | < 1 | 80 to 90 | A (A represents a DC90 value <10.0 nM) | – | – | – | COc1cc(N2CC(F)(CN3CCC(n4cc5cc(NC(=O)c6cnn7cccnc67)c(OCC6CC6)cc5n4)CC3)C2)cc2c1C(=O)N(C1CCC(=O)NC1=O)C2=O (centres unmarked) [Example 240] | ≥ 90 | 80 to 90 | – | –
10 to 50 | 10 to 50 | 5 to 10 | 80 to 90 | D (D represents a DC90 value ≥50 nM) | – | – | – | O=C1CCC(N2C(=O)c3ccc(N4CC(F)(CN5CCC(n6cc7cc(NC(=O)c8cnn9cccnc89)c(N8CCC(N9CCC9)CC8)cc7n6)CC5)C4)cc3C2=O)C(=O)N1 (centres unmarked) [Example 243] | ≥ 90 | < 70 | – | –
< 10 | 10 to 50 | 1 to 5 | 70 to 80 | A (A represents a DC90 value <10.0 nM) | – | – | – | O=C1CCC(N2Cc3ccc(N4CC(F)(CN5CCC(n6cc7cc(NC(=O)c8cnn9cccnc89)c(OCC8CC8)cc7n6)CC5)C4)cc3C2=O)C(=O)N1 (centres unmarked) [Example 245] | ≥ 90 | 80 to 90 | – | –
